Several values for one entry are separate records, joined by “and”; a condition that tells them apart may be missing. Identical values can stand only once.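 Tested at 5 concentrations; 48 h exposure; 96-well plates; endpoints linearly interpolated, else capped at highest concentration. At the GI50, growth is halved. TGI: concentration producing complete growth inhibition.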
How the values were obtained:
Assay in all cases: inhibition of tumour cell growth, NCI panel, 48 h
[1] = system: UACC-62 melanoma
[2] = system: MALME-3M melanoma
[3] = system: MDA-MB-231 breast
[4] = system: EKVX NSCLC
[5] = system: HCC-2998 colon
[6] = system: MOLT-4 leukemia
[7] = system: TK-10 renal
[8] = system: UACC-257 melanoma
[9] = system: KM12 colon
[10] = system: OVCAR-8 ovarian
[11] = system: SN12C renal
[12] = system: M14 melanoma
[13] = system: SK-MEL-28 melanoma
[14] = system: U251 CNS
[15] = system: NCI-H522 lung
[16] = system: CCRF-CEM leukemia
[17] = system: 786-0 renal
[18] = system: A498 renal
[19] = system: HT29 colon
[20] = system: SW-620 colon
[21] = system: OVCAR-4 ovarian
[22] = system: SF-268 CNS
[23] = system: MCF7 breast
[24] = system: LOX IMVI melanoma
[25] = system: HOP-92 NSCLC
[26] = system: NCI-H460 lung
[27] = system: SNB-19 CNS
[28] = system: COLO 205 colon
[29] = system: HCT-15 colon
[30] = system: PC-3 prostate
[31] = system: IGROV1 ovarian
[32] = system: A549 NSCLC
[33] = system: SR leukemia
[34] = system: NCI-H23 lung
[35] = system: BT-549 breast
[36] = system: SK-OV-3 ovarian
[37] = system: RPMI-8226 leukemia
[38] = system: HOP-62 NSCLC
[39] = system: UO-31 renal
[40] = system: SK-MEL-5 melanoma
[41] = system: OVCAR-5 ovarian
[42] = system: MDA-MB-435
[43] = system: NCI/ADR-RES ovarian
[44] = system: CAKI-1 renal
[45] = system: SF-539 CNS
[46] = system: ACHN renal
[47] = system: HS 578T breast
[48] = system: K-562 leukemia
[49] = system: DU-145 prostate
[50] = system: SF-295 CNS
[51] = system: OVCAR-3 ovarian
[52] = system: HL-60(TB) leukemia
[53] = system: NCI-H226 lung
[54] = system: RXF 393 renal
[55] = system: HCT-116 colon

Q: With `COc1cccc(-c2cc(=O)c3cc(NC(C)=O)ccc3[nH]2)c1` as the compound, how does the TGI [1] read?
A: Its TGI is > 100 µM.

Q: What about the TGI [2] of the same compound?
A: Its TGI is > 100 µM.

Q: And the TGI [3]?
A: Its TGI is > 100 µM.

Q: What about the TGI [4] of the same compound?
A: Its TGI is > 100 µM.

Q: And the TGI [5]?
A: Its TGI is > 100 µM.

Q: And the TGI [6]?
A: The TGI was > 100 µM.

Q: And the TGI [7]?
A: Its TGI is > 100 µM.

Q: What about the TGI [8] of the same compound?
A: Its TGI is > 100 µM.

Q: What about the TGI [9] of the same compound?
A: Its TGI is > 100 µM.

Q: And the TGI [10]?
A: The TGI was > 100 µM.

Q: And the TGI [11]?
A: The TGI was > 100 µM.

Q: And the TGI [12]?
A: The TGI was > 100 µM.

Q: What about the TGI [13] of the same compound?
A: Its TGI is > 100 µM.

Q: What about the TGI [14] of the same compound?
A: Its TGI is > 100 µM.

Q: And the TGI [15]?
A: The TGI was > 100 µM.

Q: What about the TGI [16] of the same compound?
A: Its TGI is 9.27 µM.

Q: What about the TGI [17] of the same compound?
A: Its TGI is > 100 µM.

Q: And the TGI [18]?
A: Its TGI is 61 µM.

Q: What about the TGI [19] of the same compound?
A: The TGI was > 100 µM.

Q: And the TGI [20]?
A: Its TGI is > 100 µM.

Q: And the GI50 [21]?
A: The GI50 was 19.6 µM.

Q: And the TGI [21]?
A: The TGI was > 100 µM.

Q: And the TGI [22]?
A: Its TGI is > 100 µM.

Q: And the TGI [23]?
A: Its TGI is > 100 µM.

Q: What about the TGI [24] of the same compound?
A: The TGI was > 100 µM.

Q: What about the TGI [25] of the same compound?
A: The TGI was > 100 µM.

Q: And the TGI [26]?
A: The TGI was > 100 µM.

Q: And the TGI [27]?
A: Its TGI is > 100 µM.

Q: What about the TGI [28] of the same compound?
A: The TGI was > 100 µM.

Q: What about the TGI [29] of the same compound?
A: The TGI was > 100 µM.

Q: And the TGI [30]?
A: The TGI was > 100 µM.

Q: And the TGI [31]?
A: Its TGI is > 100 µM.

Q: And the TGI [32]?
A: The TGI was > 100 µM.

Q: And the TGI [33]?
A: Its TGI is 6 µM.

Q: What about the TGI [34] of the same compound?
A: The TGI was > 100 µM.

Q: And the TGI [35]?
A: Its TGI is > 100 µM.

Q: What about the TGI [36] of the same compound?
A: Its TGI is > 100 µM.

Q: What about the TGI [37] of the same compound?
A: Its TGI is 96.2 µM.

Q: What about the TGI [38] of the same compound?
A: The TGI was > 100 µM.

Q: What about the TGI [39] of the same compound?
A: The TGI was > 100 µM.

Q: What about the TGI [40] of the same compound?
A: Its TGI is 56 µM.

Q: What about the TGI [41] of the same compound?
A: The TGI was > 100 µM.

Q: And the TGI [42]?
A: The TGI was 17.1 µM.

Q: What about the TGI [43] of the same compound?
A: Its TGI is > 100 µM.

Q: What about the TGI [44] of the same compound?
A: The TGI was > 100 µM.

Q: What about the TGI [45] of the same compound?
A: The TGI was 44.7 µM.

Q: What about the TGI [46] of the same compound?
A: The TGI was > 100 µM.

Q: What about the TGI [47] of the same compound?
A: Its TGI is 8.35 µM.

Q: Which results are given for `Cc1ccnc2[nH]c(-c3cccc4ccccc34)cc(=O)c12`?
A: TGI [1]: 26.5 µM; TGI [2]: 0.0474 µM; GI50 [3]: 0.0656 µM; TGI [3]: 6.8 µM; GI50 [4]: 0.0151 µM; TGI [4]: 34.6 µM; GI50 [5]: 0.101 µM; TGI [5]: 0.363 µM and 0.707 µM; TGI [6]: > 100 µM; TGI [48]: 63.9 µM; GI50 [7]: 25.8 µM; TGI [7]: > 100 µM; TGI [8]: > 100 µM; TGI [9]: 3.85 µM; GI50 [10]: 0.0169 µM; TGI [10]: 16 µM; GI50 [11]: 0.678 µM; TGI [11]: > 100 µM; GI50 [12]: 0.0132 µM; TGI [12]: > 100 µM; TGI [13]: 40.2 µM; TGI [15]: 0.00758 µM and 0.0471 µM; GI50 [49]: 0.0284 µM; TGI [49]: > 100 µM; TGI [16]: > 100 µM; TGI [17]: > 100 µM; TGI [18]: 0.0681 µM; TGI [19]: 0.0785 µM and 0.0628 µM; TGI [20]: > 100 µM; GI50 [21]: 17.6 µM; TGI [21]: > 100 µM; GI50 [50]: 0.0107 µM; TGI [50]: > 100 µM; TGI [51]: 0.0115 µM; TGI [52]: 0.00697 µM; TGI [53]: 33.9 µM; GI50 [22]: 15.8 µM; TGI [22]: > 100 µM; GI50 [23]: 0.0431 µM; TGI [23]: 28 µM; TGI [24]: 17.1 µM; TGI [54]: > 100 µM; TGI [26]: > 100 µM; TGI [27]: > 100 µM; GI50 [28]: 0.015 µM; TGI [28]: 0.0992 µM and 0.205 µM; GI50 [29]: 0.0152 µM; TGI [29]: > 100 µM; GI50 [30]: 0.0199 µM; GI50 [31]: 0.0585 µM; TGI [31]: 50 µM; GI50 [32]: 0.0132 µM; TGI [32]: > 100 µM; TGI [33]: 34.8 µM; GI50 [34]: 0.0315 µM; TGI [34]: > 100 µM; TGI [35]: 72 µM; TGI [37]: 28.6 µM; GI50 [38]: 7.39 µM; TGI [38]: > 100 µM; GI50 [39]: 0.0368 µM; TGI [39]: 53.8 µM; GI50 [41]: 0.0813 µM; TGI [41]: > 100 µM; TGI [42]: 0.000495 µM; TGI [55]: 14.2 µM; TGI [44]: > 100 µM; GI50 [46]: 0.039 µM; TGI [46]: > 100 µM; GI50 [47]: 0.0173 µM; TGI [47]: 92.7 µM

Source: PubChem BioAssay (NCI)
